# ChEMBL document CHEMBL6153125, “Harnessing the Magic Methyl Effect: Discovery of CLPP-2068 as a Novel HsClpP Activator for the Treatment of Diffuse Large B-Cell Lymphoma” (J Med Chem, 2025)
# Non-standard residues stand in square brackets, D forms with d. Residues, ends and D or L forms follow the SMILES beside them. αMeP = C[C@@]1(C(=O)O)CCCN1
# Key:
# OCI-Ly10 = experiment: Antiproliferative activity against human OCI-Ly10 cells assessed as cell viability measured after 72 hrs incubation by CellTiter-based growth inhibition assay; settings: OCI-Ly10, 72 h
# [1] = molecular target: ATP-dependent Clp protease proteolytic subunit, mitochondrial (Homo sapiens, UniProt Q16740); experiment: Activation of human ClpP extracted from Escherichia coli using Ac-WLA-AMC as substrate assessed as fluorescence signal measured after 10 mins incubation
# Bcr/Abl fusion protein = Bcr/Abl fusion protein (Homo sapiens, UniProt P00519); experiment: Inhibition of Bcr-Abl (unknown origin)
# [2] = molecular target: Voltage-gated inwardly rectifying potassium channel KCNH2 (Homo sapiens, UniProt Q12809)
# in vivo = settings: rat, blood, iv, 10 mg/kg
# Description: Elimination half life in rat blood at 10 mg/kg, iv measured after 12 hrs
# ATP-dependent Clp protease proteolytic subunit, mitochondrial, sequence (Q16740 whole entry, the tested form may be a part): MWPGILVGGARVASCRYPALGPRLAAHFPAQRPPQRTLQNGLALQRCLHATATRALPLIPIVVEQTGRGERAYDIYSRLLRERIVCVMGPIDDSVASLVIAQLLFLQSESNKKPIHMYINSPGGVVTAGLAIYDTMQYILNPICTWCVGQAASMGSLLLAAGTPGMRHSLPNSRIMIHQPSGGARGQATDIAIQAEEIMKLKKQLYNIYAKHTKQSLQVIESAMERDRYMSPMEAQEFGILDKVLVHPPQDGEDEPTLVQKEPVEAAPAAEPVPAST
# Bcr/Abl fusion protein, sequence (P00519 whole entry, the tested form may be a part): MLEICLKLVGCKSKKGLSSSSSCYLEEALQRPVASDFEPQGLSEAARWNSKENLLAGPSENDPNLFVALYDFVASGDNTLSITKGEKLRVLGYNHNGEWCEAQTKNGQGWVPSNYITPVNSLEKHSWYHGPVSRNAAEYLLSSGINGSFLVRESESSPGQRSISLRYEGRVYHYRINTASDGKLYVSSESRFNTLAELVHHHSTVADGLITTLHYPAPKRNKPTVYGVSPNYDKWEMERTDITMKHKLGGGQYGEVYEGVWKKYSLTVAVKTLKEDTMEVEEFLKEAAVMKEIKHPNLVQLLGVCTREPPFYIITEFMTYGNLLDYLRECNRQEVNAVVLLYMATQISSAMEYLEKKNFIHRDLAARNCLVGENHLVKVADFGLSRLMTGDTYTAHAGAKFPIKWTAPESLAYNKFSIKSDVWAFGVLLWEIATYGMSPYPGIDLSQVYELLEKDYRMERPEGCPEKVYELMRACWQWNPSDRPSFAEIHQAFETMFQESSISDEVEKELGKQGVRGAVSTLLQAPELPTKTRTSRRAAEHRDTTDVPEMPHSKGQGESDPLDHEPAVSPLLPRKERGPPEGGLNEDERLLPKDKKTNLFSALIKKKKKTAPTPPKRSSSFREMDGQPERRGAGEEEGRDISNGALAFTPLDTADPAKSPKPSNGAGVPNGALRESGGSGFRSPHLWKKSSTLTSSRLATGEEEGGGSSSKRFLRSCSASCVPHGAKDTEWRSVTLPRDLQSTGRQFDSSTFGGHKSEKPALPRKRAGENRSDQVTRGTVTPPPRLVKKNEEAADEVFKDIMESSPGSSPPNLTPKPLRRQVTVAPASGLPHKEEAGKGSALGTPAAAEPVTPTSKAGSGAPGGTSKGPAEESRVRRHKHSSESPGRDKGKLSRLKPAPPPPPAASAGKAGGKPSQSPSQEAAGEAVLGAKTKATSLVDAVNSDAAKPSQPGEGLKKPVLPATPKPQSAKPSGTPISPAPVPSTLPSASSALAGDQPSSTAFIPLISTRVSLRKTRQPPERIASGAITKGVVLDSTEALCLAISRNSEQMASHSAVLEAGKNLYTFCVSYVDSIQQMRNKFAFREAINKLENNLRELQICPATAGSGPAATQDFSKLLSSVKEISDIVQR
# Bcr/Abl fusion protein, sequence (P11274 whole entry, further chain, the tested form may be a part): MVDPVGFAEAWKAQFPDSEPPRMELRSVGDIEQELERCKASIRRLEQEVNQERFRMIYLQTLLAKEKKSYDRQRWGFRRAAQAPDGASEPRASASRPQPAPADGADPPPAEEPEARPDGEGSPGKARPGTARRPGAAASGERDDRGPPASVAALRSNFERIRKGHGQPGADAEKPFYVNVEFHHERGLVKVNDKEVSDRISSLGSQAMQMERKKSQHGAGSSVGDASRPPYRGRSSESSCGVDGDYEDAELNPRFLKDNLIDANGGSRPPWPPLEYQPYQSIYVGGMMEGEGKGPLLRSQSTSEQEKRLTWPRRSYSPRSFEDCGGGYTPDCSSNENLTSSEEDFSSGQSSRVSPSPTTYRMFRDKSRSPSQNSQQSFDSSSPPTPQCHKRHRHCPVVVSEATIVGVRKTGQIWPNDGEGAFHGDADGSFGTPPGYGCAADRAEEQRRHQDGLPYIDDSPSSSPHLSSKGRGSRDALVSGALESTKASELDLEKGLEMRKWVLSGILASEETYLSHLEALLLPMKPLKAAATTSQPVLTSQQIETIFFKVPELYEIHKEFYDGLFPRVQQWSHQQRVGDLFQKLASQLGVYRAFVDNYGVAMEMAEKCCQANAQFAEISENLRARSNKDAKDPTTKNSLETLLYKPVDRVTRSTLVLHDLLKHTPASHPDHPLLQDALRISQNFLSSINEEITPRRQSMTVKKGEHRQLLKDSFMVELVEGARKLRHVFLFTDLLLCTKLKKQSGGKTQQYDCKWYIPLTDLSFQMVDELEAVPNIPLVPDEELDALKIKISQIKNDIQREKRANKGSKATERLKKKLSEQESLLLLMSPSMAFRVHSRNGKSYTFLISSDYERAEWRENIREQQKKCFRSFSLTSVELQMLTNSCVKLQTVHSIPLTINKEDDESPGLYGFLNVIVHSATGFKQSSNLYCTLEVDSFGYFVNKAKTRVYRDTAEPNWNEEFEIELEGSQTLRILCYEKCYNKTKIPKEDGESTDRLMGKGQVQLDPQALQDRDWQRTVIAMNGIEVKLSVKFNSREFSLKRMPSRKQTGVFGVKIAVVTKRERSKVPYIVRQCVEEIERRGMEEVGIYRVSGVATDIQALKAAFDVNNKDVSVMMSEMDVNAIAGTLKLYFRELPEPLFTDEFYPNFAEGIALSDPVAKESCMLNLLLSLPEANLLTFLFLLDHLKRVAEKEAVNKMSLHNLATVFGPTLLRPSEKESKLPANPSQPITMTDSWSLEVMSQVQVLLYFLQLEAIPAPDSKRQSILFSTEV
# Voltage-gated inwardly rectifying potassium channel KCNH2, sequence (Q12809 whole entry): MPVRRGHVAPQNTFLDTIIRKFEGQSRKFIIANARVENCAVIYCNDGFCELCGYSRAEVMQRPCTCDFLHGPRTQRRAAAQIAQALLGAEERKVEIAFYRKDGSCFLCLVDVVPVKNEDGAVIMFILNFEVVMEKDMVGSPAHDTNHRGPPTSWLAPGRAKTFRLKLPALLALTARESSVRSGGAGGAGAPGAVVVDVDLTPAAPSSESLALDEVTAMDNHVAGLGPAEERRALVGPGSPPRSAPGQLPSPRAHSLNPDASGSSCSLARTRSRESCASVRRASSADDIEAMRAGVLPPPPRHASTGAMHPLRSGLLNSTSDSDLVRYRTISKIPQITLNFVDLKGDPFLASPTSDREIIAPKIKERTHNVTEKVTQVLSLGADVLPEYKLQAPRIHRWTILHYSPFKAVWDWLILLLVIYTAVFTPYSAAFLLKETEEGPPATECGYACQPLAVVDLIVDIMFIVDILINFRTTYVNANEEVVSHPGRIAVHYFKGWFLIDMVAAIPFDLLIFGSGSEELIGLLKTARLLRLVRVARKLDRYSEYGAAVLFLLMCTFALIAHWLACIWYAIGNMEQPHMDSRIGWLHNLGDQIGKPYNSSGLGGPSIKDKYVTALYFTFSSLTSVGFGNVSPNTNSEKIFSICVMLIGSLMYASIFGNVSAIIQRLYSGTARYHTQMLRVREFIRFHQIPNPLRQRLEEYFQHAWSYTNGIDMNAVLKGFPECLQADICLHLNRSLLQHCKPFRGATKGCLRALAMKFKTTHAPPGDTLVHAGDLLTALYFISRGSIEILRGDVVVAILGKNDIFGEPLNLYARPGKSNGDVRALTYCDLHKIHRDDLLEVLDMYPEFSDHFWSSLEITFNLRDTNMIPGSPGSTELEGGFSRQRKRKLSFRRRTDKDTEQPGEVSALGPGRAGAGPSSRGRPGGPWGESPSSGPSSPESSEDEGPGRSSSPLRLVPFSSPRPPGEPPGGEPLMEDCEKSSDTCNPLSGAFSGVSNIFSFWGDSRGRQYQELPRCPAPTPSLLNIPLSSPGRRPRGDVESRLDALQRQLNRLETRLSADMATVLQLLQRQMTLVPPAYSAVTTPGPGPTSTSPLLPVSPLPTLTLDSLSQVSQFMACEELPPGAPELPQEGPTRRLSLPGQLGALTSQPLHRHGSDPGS
Compound,IC50 (OCI-Ly10) [nM],EC50 [1] [nM],further results
C[C@@H]1Cc2nc(NCc3cccc(Br)c3)[nH]c(=O)c2CN1Cc1cccc(C#N)c1,89.1,44.8,–
C[C@@H]1Cc2nc(NCc3ccc(Cl)cc3)[nH]c(=O)c2CN1Cc1cccc(C#N)c1,13.5,59.2,–
O=C(Nc1cccc(Nc2nccc(-c3cccnc3)n2)c1)c1ccccc1,–,–,IC50 (Bcr/Abl fusion protein): 200 nM
C[C@@H]1Cc2nc(NCc3ccc(C(F)(F)F)cc3)[nH]c(=O)c2CN1Cc1ccc(F)cc1,1080,490,–
C[C@@H]1Cc2nc(NCc3ccc(C(F)(F)F)cc3)[nH]c(=O)c2CN1Cc1cccc(C#N)c1,41.6,56.1,–
C[C@@H]1Cc2nc(NCc3ccc(C(F)(F)F)cc3)[nH]c(=O)c2CN1Cc1ccccc1,–,65.1,–
C[C@@H]1Cc2nc(NCc3ccc(C(F)(F)F)cc3)[nH]c(=O)c2CN1Cc1cccc(F)c1,153,272,–
C[C@@H]1Cc2nc(NCc3ccccc3Br)[nH]c(=O)c2CN1Cc1cccc(C#N)c1,119,349,–
O=c1nc2n(c3c1CN(Cc1ccccc1)CC3)CCN2Cc1ccc(F)c(Br)c1,–,–,IC50 [2]: 1520 nM
COc1cccc(CN2Cc3c(nc(NCc4ccc(C(F)(F)F)cc4)[nH]c3=O)C[C@H]2C)c1,9010,1000,–
O=c1nc(NCc2ccc(C(F)(F)F)cc2)[nH]c2c1CN(Cc1ccccc1)CC2,–,2410,–
C[C@@H]1Cc2nc(NCc3ccc(C(F)(F)F)cc3)[nH]c(=O)c2CN1Cc1cccnc1,7840,3380,–
C[C@@H]1Cc2nc(NCc3ccc(C(F)(F)F)cc3)[nH]c(=O)c2CN1Cc1cccc(OC(F)(F)F)c1,1290,270,–
C[C@@H]1Cc2nc(NCc3ccc(C(F)(F)F)cc3)[nH]c(=O)c2CN1Cc1cccc(Cl)c1,110,151,–
C[C@@H]1Cc2nc(NCc3ccc(C(F)(F)F)cc3)[nH]c(=O)c2CN1Cc1ccccc1O,1290,846,–
C[C@@]1(C(=O)N[C@@H](CCC(=O)O)C(=O)O)CCCN1C(=O)CN [TROFINETIDE] (H-Gly-[αMeP]-Glu-OH),–,–,half-life at 12 h (in vivo): 1.23 h
C[C@@H]1Cc2nc(NCc3ccc(C(F)(F)F)cc3)[nH]c(=O)c2CN1Cc1ccncc1,6400,3960,–
